Calls of active or inactive are those of the source. No cut-off for these calls is given here.
Assays:
[1] = biological target: T1, Glutamate NMDA receptor; GRIN1/GRIN2B (Homo sapiens, UniProt Q05586+Q13224); experiment: Inhibition of recombinant GluN1/GluN2B receptor (unknown origin) expressed in HEK293 cells assessed as inhibition of glutamate-evoked current by whole-cell voltage-clamp method; assay type: cell-based
[2] = biological target: T1, Glutamate NMDA receptor; GRIN1/GRIN2B; experiment: Inhibition of recombinant GluN1/GluN2B receptor (unknown origin) expressed in HEK293 cells assessed as inhibition of glutamate-evoked current at 1 to 10 uM by whole-cell voltage-clamp method; assay type: cell-based
[3] = Inhibition of GABA receptor in rat hippocampal neurons assessed as inhibition of GABA-evoked current by whole-cell voltage-clamp method; assay type: tissue-based; details: Hippocampus
[4] = Inhibition of AMPA receptor in rat hippocampal neurons assessed as inhibition of AMPA-evoked current by whole-cell voltage-clamp method in presence of receptor desensitization inhibitor cyclothiazide; assay type: tissue-based; details: Hippocampus
[5] = biological target: Ionotropic glutamate receptor NMDA 1/2C (Homo sapiens, UniProt Q05586+Q14957); experiment: Inhibition of recombinant GluN1/GluN2C receptor (unknown origin) expressed in HEK293 cells assessed as inhibition of glutamate-evoked current by whole-cell voltage-clamp method; assay type: cell-based
Ionotropic glutamate receptor NMDA 1/2C, sequence (Q14957 whole entry, other chains not shown): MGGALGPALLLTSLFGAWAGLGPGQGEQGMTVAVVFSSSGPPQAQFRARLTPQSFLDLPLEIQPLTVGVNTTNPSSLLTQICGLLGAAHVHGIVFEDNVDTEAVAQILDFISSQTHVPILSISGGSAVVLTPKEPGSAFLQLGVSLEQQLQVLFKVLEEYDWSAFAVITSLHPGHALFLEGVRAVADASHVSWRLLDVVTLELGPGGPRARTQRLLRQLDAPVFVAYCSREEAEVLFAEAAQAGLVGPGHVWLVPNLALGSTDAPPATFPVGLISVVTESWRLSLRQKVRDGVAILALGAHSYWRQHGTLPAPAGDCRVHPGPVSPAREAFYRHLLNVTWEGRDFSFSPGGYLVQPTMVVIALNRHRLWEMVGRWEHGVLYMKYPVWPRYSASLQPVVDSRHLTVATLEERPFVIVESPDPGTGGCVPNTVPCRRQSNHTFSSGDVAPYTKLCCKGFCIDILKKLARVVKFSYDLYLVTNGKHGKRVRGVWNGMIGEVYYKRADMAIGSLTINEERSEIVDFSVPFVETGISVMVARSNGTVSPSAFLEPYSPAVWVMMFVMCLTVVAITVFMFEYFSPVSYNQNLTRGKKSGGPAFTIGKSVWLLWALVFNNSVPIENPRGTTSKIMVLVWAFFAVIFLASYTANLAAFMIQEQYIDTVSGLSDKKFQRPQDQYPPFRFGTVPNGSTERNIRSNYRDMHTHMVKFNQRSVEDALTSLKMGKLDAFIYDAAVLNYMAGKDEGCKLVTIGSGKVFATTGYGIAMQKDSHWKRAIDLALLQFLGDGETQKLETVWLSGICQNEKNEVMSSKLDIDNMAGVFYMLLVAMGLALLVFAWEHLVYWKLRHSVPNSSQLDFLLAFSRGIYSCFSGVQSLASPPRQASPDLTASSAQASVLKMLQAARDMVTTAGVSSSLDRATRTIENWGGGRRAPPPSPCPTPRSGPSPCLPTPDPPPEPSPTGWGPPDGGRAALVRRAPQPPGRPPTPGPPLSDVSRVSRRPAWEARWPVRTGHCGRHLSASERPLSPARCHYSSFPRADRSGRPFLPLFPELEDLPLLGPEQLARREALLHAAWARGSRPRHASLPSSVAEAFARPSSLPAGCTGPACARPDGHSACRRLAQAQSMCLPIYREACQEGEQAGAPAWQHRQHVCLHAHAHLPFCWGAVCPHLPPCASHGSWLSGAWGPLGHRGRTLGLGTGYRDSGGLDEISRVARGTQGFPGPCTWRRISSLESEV

Glutamate NMDA receptor = experiment: Inhibition of NMDA receptor in rat hippocampal neurons assessed as inhibition of glutamate-evoked current by whole-cell voltage-clamp method; assay type: tissue-based, Hippocampus
[6] = biological target: Ionotropic glutamate receptor NMDA 1/2D (Homo sapiens, UniProt O15399+Q05586); experiment: Inhibition of recombinant GluN1/GluN2D receptor (unknown origin) expressed in HEK293 cells assessed as inhibition of glutamate-evoked current by whole-cell voltage-clamp method; assay type: cell-based
Ionotropic glutamate receptor NMDA 1/2D, sequence (O15399 whole entry, other chains not shown): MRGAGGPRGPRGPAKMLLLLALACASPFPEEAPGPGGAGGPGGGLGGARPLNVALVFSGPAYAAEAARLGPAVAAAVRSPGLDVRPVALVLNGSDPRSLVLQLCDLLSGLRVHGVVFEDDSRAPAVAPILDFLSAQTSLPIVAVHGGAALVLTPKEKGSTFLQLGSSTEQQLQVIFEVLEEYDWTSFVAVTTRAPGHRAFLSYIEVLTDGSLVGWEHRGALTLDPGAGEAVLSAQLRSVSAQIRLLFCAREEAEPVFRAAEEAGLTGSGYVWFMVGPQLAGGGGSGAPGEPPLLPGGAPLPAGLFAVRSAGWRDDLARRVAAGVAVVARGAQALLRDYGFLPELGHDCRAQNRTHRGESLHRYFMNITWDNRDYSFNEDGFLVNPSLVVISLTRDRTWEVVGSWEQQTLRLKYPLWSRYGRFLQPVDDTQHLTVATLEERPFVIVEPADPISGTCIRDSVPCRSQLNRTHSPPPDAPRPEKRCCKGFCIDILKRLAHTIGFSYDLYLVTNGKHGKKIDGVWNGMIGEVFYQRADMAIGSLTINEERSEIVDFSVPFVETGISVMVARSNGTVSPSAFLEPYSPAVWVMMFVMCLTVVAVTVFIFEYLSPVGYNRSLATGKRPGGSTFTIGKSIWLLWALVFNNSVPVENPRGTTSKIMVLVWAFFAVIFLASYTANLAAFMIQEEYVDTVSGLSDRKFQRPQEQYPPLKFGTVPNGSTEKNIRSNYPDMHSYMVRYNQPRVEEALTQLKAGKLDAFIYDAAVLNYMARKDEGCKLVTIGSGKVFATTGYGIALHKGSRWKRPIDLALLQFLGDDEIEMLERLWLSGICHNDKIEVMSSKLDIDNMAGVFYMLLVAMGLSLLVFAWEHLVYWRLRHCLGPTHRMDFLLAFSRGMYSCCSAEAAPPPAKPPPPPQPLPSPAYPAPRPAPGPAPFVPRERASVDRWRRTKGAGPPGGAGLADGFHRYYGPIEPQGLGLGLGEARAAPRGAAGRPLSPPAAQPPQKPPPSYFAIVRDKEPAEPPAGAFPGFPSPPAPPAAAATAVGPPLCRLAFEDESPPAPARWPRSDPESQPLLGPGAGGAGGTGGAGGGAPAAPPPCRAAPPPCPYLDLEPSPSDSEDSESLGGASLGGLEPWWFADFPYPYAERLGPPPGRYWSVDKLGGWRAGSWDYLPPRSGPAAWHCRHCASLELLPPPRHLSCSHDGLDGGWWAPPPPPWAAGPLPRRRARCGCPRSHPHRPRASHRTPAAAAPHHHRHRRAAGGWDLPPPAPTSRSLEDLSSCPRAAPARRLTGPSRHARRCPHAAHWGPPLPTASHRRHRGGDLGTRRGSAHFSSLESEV

[7] = biological target: Glutamate NMDA receptor; GRIN1/GRIN2A (Homo sapiens, UniProt Q05586+Q12879); experiment: Inhibition of recombinant GluN1/GluN2A receptor (unknown origin) expressed in HEK293 cells assessed as inhibition of glutamate-evoked current by whole-cell voltage-clamp method; assay type: cell-based
Glutamate NMDA receptor; GRIN1/GRIN2A, sequence (Q12879 whole entry, other chains not shown): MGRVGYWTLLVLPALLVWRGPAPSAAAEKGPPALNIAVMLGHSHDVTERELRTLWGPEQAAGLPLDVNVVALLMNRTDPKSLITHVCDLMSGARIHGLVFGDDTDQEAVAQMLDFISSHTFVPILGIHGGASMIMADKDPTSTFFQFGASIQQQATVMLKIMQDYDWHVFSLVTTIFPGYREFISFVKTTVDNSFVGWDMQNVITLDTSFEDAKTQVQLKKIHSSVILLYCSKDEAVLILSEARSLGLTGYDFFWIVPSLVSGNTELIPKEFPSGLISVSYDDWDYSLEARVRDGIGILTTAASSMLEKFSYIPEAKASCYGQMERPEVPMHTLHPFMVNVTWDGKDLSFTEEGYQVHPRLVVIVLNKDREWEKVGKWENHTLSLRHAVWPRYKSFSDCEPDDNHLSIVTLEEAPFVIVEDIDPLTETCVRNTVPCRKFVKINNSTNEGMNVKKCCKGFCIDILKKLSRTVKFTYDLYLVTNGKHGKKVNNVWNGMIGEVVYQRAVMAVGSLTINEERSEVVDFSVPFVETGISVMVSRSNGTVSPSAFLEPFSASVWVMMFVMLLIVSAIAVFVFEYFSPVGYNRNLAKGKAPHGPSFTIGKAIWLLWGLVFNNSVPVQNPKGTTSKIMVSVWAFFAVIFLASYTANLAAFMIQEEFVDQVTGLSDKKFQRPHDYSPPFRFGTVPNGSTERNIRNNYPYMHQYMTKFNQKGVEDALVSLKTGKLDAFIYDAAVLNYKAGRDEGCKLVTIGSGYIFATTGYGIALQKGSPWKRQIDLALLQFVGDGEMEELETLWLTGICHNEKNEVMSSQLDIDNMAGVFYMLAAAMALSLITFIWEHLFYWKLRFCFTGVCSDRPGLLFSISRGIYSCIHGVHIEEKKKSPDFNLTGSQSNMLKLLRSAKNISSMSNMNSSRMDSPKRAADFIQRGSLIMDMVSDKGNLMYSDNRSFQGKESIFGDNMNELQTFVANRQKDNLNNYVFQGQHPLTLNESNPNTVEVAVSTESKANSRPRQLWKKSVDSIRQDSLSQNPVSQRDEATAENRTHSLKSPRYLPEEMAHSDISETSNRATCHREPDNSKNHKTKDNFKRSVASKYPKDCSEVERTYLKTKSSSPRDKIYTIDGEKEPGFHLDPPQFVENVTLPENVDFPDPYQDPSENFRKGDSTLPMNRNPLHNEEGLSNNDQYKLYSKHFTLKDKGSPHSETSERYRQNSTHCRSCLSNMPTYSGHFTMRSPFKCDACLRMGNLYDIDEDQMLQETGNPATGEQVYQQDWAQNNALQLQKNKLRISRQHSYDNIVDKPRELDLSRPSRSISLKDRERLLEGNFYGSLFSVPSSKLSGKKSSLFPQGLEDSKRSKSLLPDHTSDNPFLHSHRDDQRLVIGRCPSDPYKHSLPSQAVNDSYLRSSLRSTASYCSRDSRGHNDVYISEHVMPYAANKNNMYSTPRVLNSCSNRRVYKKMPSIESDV

## C[C@]12CC[C@@H](OS(=O)(=O)O)C[C@H]1CC[C@@H]1[C@@H]2CC[C@@]2(C)[C@H]1CCC2(F)F.c1ccncc1
[1]
  IC50: 7000 nM

## C=C(C)[C@H]1CC[C@H]2[C@@H]3CC[C@@H]4C[C@H](OS(=O)(=O)O)CC[C@]4(C)[C@H]3CC[C@]12C.c1ccncc1
[1]
  IC50: 500 nM

## C[C@@H]1CC[C@@H]2[C@H]1CC[C@H]1[C@H]2CC[C@@H]2C[C@H](OS(=O)(=O)O)CC[C@@]21C.c1ccncc1
[1]
  IC50: 900 nM

## CC(=O)[C@H]1CC[C@H]2[C@@H]3CC[C@@H]4C[C@H](OS(=O)(=O)O)CC[C@]4(C)[C@H]3CC[C@]12C
[1]
  IC50: 23400 nM
  inhibition: Dose-dependent effect

## CC[C@@H](C)[C@H]1CC[C@H]2[C@@H]3CC[C@@H]4C[C@H](OS(=O)(=O)O)CC[C@]4(C)[C@H]3CC[C@]12C.c1ccncc1
[1]
  IC50: 90 nM

## C[C@@]12CCC[C@H]1[C@@H]1CC[C@@H]3C[C@H](OS(=O)(=O)O)CC[C@@H]3[C@H]1CC2.c1ccncc1
[1]
  IC50: 5400 nM

## C[C@]12CC[C@@H](OS(=O)(=O)O)C[C@H]1CC[C@@H]1[C@@H]2CC[C@]2(C)[C@@H](I)CC[C@@H]12.c1ccncc1
[1]
  IC50: 600 nM

## C[C@H]1CC[C@@H]2[C@@H]1CC[C@H]1[C@H]2CC[C@@H]2C[C@H](OS(=O)(=O)O)CC[C@@]21C.c1ccncc1
[1]
  IC50: 700 nM

## C/C=C1/CC[C@H]2[C@@H]3CC[C@@H]4C[C@H](OS(=O)(=O)O)CC[C@]4(C)[C@H]3CC[C@]12C.c1ccncc1
[1]
  IC50: 800 nM

## C=C1CC[C@H]2[C@@H]3CC[C@@H]4C[C@H](OS(=O)(=O)O)CC[C@]4(C)[C@H]3CC[C@]12C.c1ccncc1
[1]
  IC50: 1600 nM

## C[C@]12CC[C@@H](OS(=O)(=O)O)C[C@H]1CC[C@@H]1[C@@H]2CC[C@]2(C)C=CC[C@@H]12.c1ccncc1
[2]
  inhibition: inactive

## C[C@H]1CC[C@H]2[C@@H]3CC[C@@H]4C[C@H](OS(=O)(=O)O)CC[C@]4(C)[C@H]3CC[C@]12C.c1ccncc1
[3]
  IC50: 1200 nM
[4]
  IC50: 9500 nM
[1]
  IC50: 600 nM
[5]
  IC50: 400 nM
Glutamate NMDA receptor
  IC50: 900 nM
[6]
  IC50: 500 nM
[7]
  IC50: 600 nM

## CC[C@H]1CC[C@H]2[C@@H]3CC[C@@H]4C[C@H](OS(=O)(=O)O)CC[C@]4(C)[C@H]3CC[C@]12C.c1ccncc1
[1]
  IC50: 400 nM

## C[C@@]12CCCC[C@H]1[C@@H]1CC[C@@H]3C[C@H](OS(=O)(=O)O)CC[C@]3(C)[C@H]1CC2.c1ccncc1
[1]
  IC50: 1100 nM

## C[C@@]12CCC[C@H]1[C@@H]1CC[C@@H]3C[C@H](OS(=O)(=O)O)CC[C@]3(C)[C@H]1CC2.c1ccncc1
[1]
  IC50: 1200 nM

## CC(C)[C@H]1CC[C@H]2[C@@H]3CC[C@@H]4C[C@H](OS(=O)(=O)O)CC[C@]4(C)[C@H]3CC[C@]12C.c1ccncc1
[1]
  IC50: 170 nM

## C=C1C[C@H]2[C@@H]3CC[C@@H]4C[C@H](OS(=O)(=O)O)CC[C@]4(C)[C@H]3CC[C@]2(C)C1.c1ccncc1
[1]
  IC50: 2200 nM

From ChEMBL document CHEMBL3593227, “A New Class of Potent N-Methyl-D-Aspartate Receptor Inhibitors: Sulfated Neuroactive Steroids with Lipophilic D-Ring Modifications” (J Med Chem, 2015)
